Results reported in article PMC8536575, “Acute effects of the imidacloprid metabolite desnitro-imidacloprid on human nACh receptors relevant for neuronal signaling” (Archives of Toxicology, 2021).

Key:
[1] = tested on: LUHMES neurons; experiment: Single-cell Ca2+-imaging of LUHMES neurons; type: cell-based, human; details: single-cell time-lapse fluorescence microscopy
Method: For Ca^2+-imaging experiments with a higher resolution on the single-cell level, the Cell Observer (Carl Zeiss Microscopy) was used. The Ca^2+-sensitive dye, the cell handling before the experiment, and the buffer were the same as described above for the experiments with the high-throughput FDSS/µCELL system. The recordings were performed with 2 × 2 binning and a 42 ms exposure time. The compounds were applied after a baseline recording of at least 10 s.
The single-cell Ca^2+-imaging recordings were exported and analyzed in Fiji ImageJ (version 1.52i) to get the average fluorescence signal of each cell. These signals were further analyzed in R, where a threshold detection was performed to detect responding cells. For this, the offset was corrected by subtracting the mean of 20–65% of the fluorescence signal of the pre-application period from the recording, to be robust against spontaneous activity. The threshold was defined as mean + 3 * SD of the negative control recordings, during the detection phase of 6.5 s during the application.

[2] = target: T1, human α4β4 nAChR (Homo sapiens, UniProt P30926+P43681); experiment: Two-electrode voltage-clamp recordings, Xenopus laevis oocytes expressing human α4β4 nAChR; type: cell-based
T1 construct: expressed in transfected cells; host or cells: Xenopus laevis oocytes, mRNA injection, 3.33 ng α4 and 3.33 ng β4
T1 sequence (P43681 27-627): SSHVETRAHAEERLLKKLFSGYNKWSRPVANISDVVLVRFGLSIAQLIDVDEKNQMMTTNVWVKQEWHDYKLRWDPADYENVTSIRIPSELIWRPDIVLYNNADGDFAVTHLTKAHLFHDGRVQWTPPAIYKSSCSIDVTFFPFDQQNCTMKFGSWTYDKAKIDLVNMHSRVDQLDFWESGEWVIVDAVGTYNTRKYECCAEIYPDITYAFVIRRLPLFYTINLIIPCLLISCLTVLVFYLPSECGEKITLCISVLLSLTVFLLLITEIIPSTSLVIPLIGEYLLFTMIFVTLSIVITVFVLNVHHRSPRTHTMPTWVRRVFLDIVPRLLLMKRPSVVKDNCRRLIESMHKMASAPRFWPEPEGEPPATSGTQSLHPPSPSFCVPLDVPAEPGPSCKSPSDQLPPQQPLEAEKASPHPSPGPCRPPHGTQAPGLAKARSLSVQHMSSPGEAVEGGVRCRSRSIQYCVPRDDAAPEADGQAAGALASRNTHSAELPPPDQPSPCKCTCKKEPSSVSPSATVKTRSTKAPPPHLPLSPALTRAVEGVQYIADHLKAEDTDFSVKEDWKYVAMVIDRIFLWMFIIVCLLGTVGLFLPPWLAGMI
T1 sequence (P30926 22-498): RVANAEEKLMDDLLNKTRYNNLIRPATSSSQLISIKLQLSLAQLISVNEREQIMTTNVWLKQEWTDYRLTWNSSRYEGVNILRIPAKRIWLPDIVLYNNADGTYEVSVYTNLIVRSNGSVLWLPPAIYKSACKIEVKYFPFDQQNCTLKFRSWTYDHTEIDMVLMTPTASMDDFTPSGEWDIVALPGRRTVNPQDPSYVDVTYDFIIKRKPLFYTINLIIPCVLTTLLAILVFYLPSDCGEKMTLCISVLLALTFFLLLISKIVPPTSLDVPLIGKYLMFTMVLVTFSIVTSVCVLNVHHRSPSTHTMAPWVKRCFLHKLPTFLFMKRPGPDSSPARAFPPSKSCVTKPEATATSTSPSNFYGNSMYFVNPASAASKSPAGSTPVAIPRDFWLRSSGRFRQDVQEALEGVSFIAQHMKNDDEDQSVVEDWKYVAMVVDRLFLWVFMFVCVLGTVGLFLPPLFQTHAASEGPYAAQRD
Excerpt: The human α7 nAChR subunit was cloned in the pCDNA3.1 vector.
For the generation of the mRNA for injection, the plasmid DNAs of α3, α4, β2, and β4 were linearized with the NotI restriction endonuclease (New England Biolabs) and the plasmid DNA of α7 was linearized with the XbaI restriction endonuclease (New England Biolabs). The mRNAs of α3, α4, β2, and β4 were generated by in vitro transcription using the mMESSAGE mMACHINE SP6 Transcription Kit (Invitrogen). For the generation of α7 mRNA, the mMESSAGE mMACHINE T7 Transcription Kit (Invitrogen) was used. For the separation of the DNA and mRNA, a phenol–chloroform extraction (Chomczynski and Sacchi [2006]) was performed. The mRNA was then obtained by ethanol precipitation from the aqueous phase; for quantification, the BioPhotometer (Eppendorf) was used.
The recordings of human α7, α3β4, α4β2, and α4β4 nAChRs expressed in Xenopus laevis oocytes (EcoCyte Bioscience) were performed in two-electrode voltage-clamp mode using the Roboocyte2 system and the corresponding software (version 1.4.1; Multi Channel Systems MCS). Prior to the recordings, the oocytes were maintained at 19 °C in modified Barth’s solution containing [mM]: 88 NaCl, 1 KCl, 0.33 Ca(NO3)2, 0.82 MgSO4, 2.4 NaHCO3, 0.41 CaCl2, 5 Tris, 100 U/ml penicillin, 100 µg/ml streptomycin, pH 7.4.
To express human α7 nAChR, we injected 50 nl of mRNA solution (30 ng mRNA) per oocyte, using the Roboinject and the corresponding software (version 1.2.1; Multi Channel Systems MCS). […]
The baseline correction of voltage-clamp oocyte recordings was performed with the Roboocyte2 + software (version 1.4.3; Multi Channel Systems MCS, Germany). The maximal current influx and further analysis were executed in scripts written in R. In the antagonist experiments with oocytes, the maximal inward current was determined for the last response of each period (control, three antagonist concentrations, and washout).

[3] = Clearance study in a hepatocyte co-culture system; details: human, hepatocytes
Excerpt: Renal clearance for DN-IMI was assumed to be governed only by passive processes, with both filtration and passive reabsorption being accounted for. Passive permeability was scaled from the predicted permeability in the intestine (Peff 0.37 10-4 cm/s) accounting for the surface area of the proximal tubules in the kidney.

NC1=NCCN1Cc1ccc(Cl)nc1 [DN-IMI, desnitro-imidacloprid]
percentage of responsive cells [1]: ~ 80%
estimated maximum ([2]; normalized to nicotine (100 µM)): ~ 0.97
EC50 ([2]; read-out: relative pEC50 (inward current amplitude) (converted)): 3.16 µM
hepatocyte CLint [3]: < 143 µL/min/1e6 cells
